Laboratory results from patent US20220395575A1, “COMBINATION THERAPY WITH PROTEIN KINASE B ACTIVATION INHIBITOR TO TREAT CANCER” (H. LEE MOFFITT CANCER CENTER AND RESEARCH INSTITUTE, INC., priority 2019, published 2022).

What was measured:
Format in all cases: cell-based
Settings in all cases: in combination with Akt activation inhibitor TCN-P
[1] = test system: U937 human leukemic cells; experiment: viability of U937 human leukemic cells, combination with TCN-P
[2] = test system: THP1 human leukemic cells; experiment: viability of THP1 human leukemic cells, combination with TCN-P
[3] = test system: HL60 human leukemic cells; experiment: viability of HL60 human leukemic cells, combination with TCN-P

Measured: synergy with TCN-P to inhibit viability

Cc1cnc(NC(=O)Nc2cc(Br)c(C)cc2OC[C@@H]2CNCCO2)cn1 [LY2603618, rabusertib]
synergizes with TCN-P: all assays above

C#Cc1cccc(Nc2ncnc3cc(OC)c(OCCCCCCC(=O)NO)cc23)c1 [CUDC-101]
synergizes with TCN-P: all assays above
